This is an account of results in article PMC6211254, “Determination of the inhibitory effects of N-methylpyrrole derivatives on glutathione reductase enzyme” (Journal of Enzyme Inhibition and Medicinal Chemistry, 2018).

Several values for one entry are separate records, joined by “and”; a condition that tells them apart may be missing. Equal values may be shown once.

The test deals with T1, GR from baker's yeast (S. cerevisiae) (Saccharomyces cerevisiae, UniProt P41921).
T1 sequence (P41921 17-483 limits assumed): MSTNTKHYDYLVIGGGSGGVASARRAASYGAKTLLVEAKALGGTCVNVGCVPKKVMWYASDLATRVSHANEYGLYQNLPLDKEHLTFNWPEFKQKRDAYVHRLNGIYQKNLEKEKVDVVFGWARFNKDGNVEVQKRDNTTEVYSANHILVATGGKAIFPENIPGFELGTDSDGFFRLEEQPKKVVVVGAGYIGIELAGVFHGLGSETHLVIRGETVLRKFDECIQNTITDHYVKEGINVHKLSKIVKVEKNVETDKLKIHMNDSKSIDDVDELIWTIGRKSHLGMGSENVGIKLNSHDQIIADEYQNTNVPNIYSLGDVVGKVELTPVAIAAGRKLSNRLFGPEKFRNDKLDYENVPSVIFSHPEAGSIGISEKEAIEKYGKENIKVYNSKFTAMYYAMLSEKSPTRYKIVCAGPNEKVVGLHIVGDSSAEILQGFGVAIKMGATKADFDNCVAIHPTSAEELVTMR
The test can be described thus: Glutathione reductase inhibition (Beutler's method, NADPH and GSSG as substrates). It counts as biochemical. The settings on record: 25 °C, pH 8.0; mean from at least three determinations, errors ±3%; read-out: IC50 values obtained from regression analysis graphs for GR enzyme. On the procedure: Activity of the glutathione enzyme was measured by Beutler’s method[22] in which one enzyme unit is defined as the oxidation of […] NADPH per min under the assay condition at 25 °C, pH 8.0. Different concentrations of the inhibitors were applied to the enzyme solutions and all compounds were tested in triplicate at each concentration used[18–21]. Control cuvette activity was assumed as 100% in the absence of inhibitor. A graphic of activity-versus inhibitor concentration was drawn for each compound (Figure 3).
In this work, we reported GR inhibitory capacity of N-methylpyrrole derivatives (8a-r). As known, glutathione reductase has been purified from various organisms and the influences of drugs, pesticides and various chemicals on GR activity have been investigated. In the current study, GR from baker's yeast (S. cerevisiae) was used and the inhibitory potentials of the synthetized compounds were determined using Beutler method with NADPH and GSSG as substrates and further kinetic studies were performed using the same method.
One may read the IC50 as the concentration that inhibits the measured activity by half. Regarding `Cn1cccc1-c1ccccc1` [Compound 8a], the concentration for half-maximal inhibition (IC50) is 4.94 µM.

Regarding `Cc1ccc(-c2cccn2C)cc1` [Compound 8b], the half-maximal inhibitory concentration (IC50) was found to be 1.4 µM.

As to `Cc1cccc(-c2cccn2C)c1` [Compound 8c], the IC50 worked out at 1.66 µM.

Take `Cc1ccccc1-c1cccn1C` [Compound 8d]: the IC50 was determined as 1.05 µM.

For the compound `Cn1cccc1-c1ccc(Br)cc1` [Compound 8e], the IC50 turned out to be 1.5 µM.

On to `Cn1cccc1-c1ccc(F)cc1` [Compound 8i], for which the IC50 is 1.42 µM.

For the compound `Cn1cccc1-c1ccccc1[N+](=O)[O-]` [Compound 8m], the IC50 is 0.104 µM.

Turning to `COc1ccccc1-c1cccn1C` [Compound 8n], the IC50 is 0.678 µM.

With `COc1ccc(-c2cccn2C)cc1` [Compound 8o], the IC50 is 0.678 µM and 1.44 µM.

With `Cn1cccc1-c1ccc(OC(F)(F)F)cc1` [Compound 8q], the half-inhibitory concentration (IC50) was determined as 0.846 µM.

Turning to `Cn1cccc1-c1ccc(C#N)cc1` [Compound 8r], the IC50 was determined as 1.79 µM.

Regarding `O=NN(CCCl)C(=O)NCCCl` [N,N-bis(2-chloroethyl)-N-nitrosourea, reference compound], the IC50 was 645 µM.
